Row | CH4 permeability [Barrer] | CO2 permeability [Barrer] | H2 permeability [Barrer] | N2 permeability [Barrer] | O2 permeability [Barrer] | SMILES
1 | 315 | 1300 | 635 | 130 | 290 | *C(=C(*)c1ccc([Si](C(C)C)(C(C)C)C(C)C)cc1)c1ccccc1 (repeat unit)
2 | 730 | 3300 | 1200 | 250 | 620 | *C(=C(*)c1ccc([Si](C)(C)C)cc1)c1ccc(-c2ccc(C(C)(C)C)cc2)cc1 (repeat unit)
3 | 1100 | 3800 | 1500 | 390 | 830 | *C(=C(*)c1ccc([Si](C)(C)C)cc1)c1ccc(O[Si](C)(C)C(C)(C)C)cc1 (repeat unit)
4 | 1550 | 4700 | 2600 | 550 | 1200 | *C(=C(*)c1ccc([Si](C)(C)C)cc1)c1ccccc1 (repeat unit)
5 | 192 | 2390 | 1000 | 107 | 340 | *Oc1ccc(-c2c(-c3ccccc3)c(-c3ccccc3)c(-c3ccc4c(c3)Oc3c(C#N)c(*)c(*)c(C#N)c3O4)c(-c3ccccc3)c2-c2ccccc2)cc1O* (repeat unit)
6 | 1.8 | 35.7 | 55 | 1.99 | 8.4 | *Oc1ccc(-c2ccc(C3CCC(Oc4ccc(C5(c6ccc(*)cc6)c6ccccc6-c6ccccc65)cc4)C(C(F)(F)F)C3)s2)cc1C(F)(F)F (repeat unit)
7 | 0.14 | 3.3 | 8.9 | 0.13 | 0.75 | *Oc1ccc(C(=O)c2ccc(-c3ccc(C(=O)c4ccc(Oc5ccc(C(C)(C)c6ccc(*)cc6)cc5)cc4)cc3)cc2)cc1 (repeat unit)
8 | 0.058 | 1.95 | – | 0.0792 | 0.61 | *Oc1ccc(C(=O)c2cccc(-c3cccc(C(=O)c4ccc(Oc5ccc(C(c6ccc(*)cc6)(C(F)(F)F)C(F)(F)F)cc5)cc4)c3)c2)cc1 (repeat unit)
9 | 0.264 | 6.96 | – | 0.291 | 1.86 | *Oc1ccc(C(=O)c2ccccc2-c2ccccc2C(=O)c2ccc(Oc3c(C)cc(-c4cc(C)c(*)c(C)c4)cc3C)cc2)cc1 (repeat unit)
10 | 0.34 | 6.8 | 36 | 0.321 | 1.8 | *Oc1ccc(C(C)(C)c2ccc(C(C)(C)c3ccc(Oc4ccc(S(=O)(=O)c5ccc(*)cc5)cc4)cc3)cc2)cc1 (repeat unit)
11 | 0.331 | 7.54 | 13 | 0.3 | 1.48 | *Oc1ccc(C(C)(C)c2ccc(OC(*)=O)cc2)cc1 (repeat unit)
12 | 1.43 | 24.2 | 41.9 | 1.18 | 5.95 | *Oc1ccc(C(C)(C)c2ccc(OC(=O)c3cc(C(*)=O)cc(C(C)(C)C)c3)cc2)cc1 (repeat unit)
13 | 0.678 | 11.6 | – | 0.625 | 2.5 | *Oc1ccc(C(C)(C)c2ccc(OC(=O)c3ccc(C(*)=O)cc3)cc2)cc1 (repeat unit)
14 | 0.471 | 9.9 | – | 0.364 | 2.04 | *Oc1ccc(C(C)(C)c2ccc(OC(=O)c3ccc(C(=O)Oc4cc(-c5cc(*)cc6ccccc56)c5ccccc5c4)cc3)cc2)cc1 (repeat unit)
15 | 0.305 | 5.16 | 18.9 | 0.273 | 1.64 | *Oc1ccc(C(C)(C)c2ccc(OC(=O)c3cccc(C(*)=O)c3)c(C(C)C)c2)cc1C(C)C (repeat unit)
16 | 0.32 | 6.4 | 17 | 0.48 | 2.1 | *Oc1ccc(C(C)(C)c2ccc(Oc3c(F)c(F)c(COC(C4CCCC(C(OCc5c(F)c(F)c(*)c(F)c5F)(C(F)(F)F)C(F)(F)F)C4)(C(F)(F)F)C(F)(F)F)c(F)c3F)cc2)cc1 (repeat unit)
17 | 0.18 | 3.5 | 11 | 0.16 | 1 | *Oc1ccc(C(C)(C)c2ccc(Oc3ccc(C(=O)c4ccc(*)cc4)cc3)cc2)cc1 (repeat unit)
18 | 0.084 | 2.19 | 9.07 | 0.087 | 0.604 | *Oc1ccc(C(C)(C)c2ccc(Oc3ccc(C(=O)c4ccc(C(=O)c5ccc(*)cc5)cc4)cc3)cc2)cc1 (repeat unit)
19 | 0.22 | 4.4 | 12.4 | 0.21 | 1.1 | *Oc1ccc(C(C)(C)c2ccc(Oc3ccc(C(=O)c4ccc(C(C)(C)c5ccc(C(=O)c6ccc(*)cc6)cc5)cc4)cc3)cc2)cc1 (repeat unit)
20 | 0.07 | 2.1 | 11 | 0.091 | 0.64 | *Oc1ccc(C(C)(C)c2ccc(Oc3ccc(S(=O)(=O)c4ccc(*)cc4)cc3)c(C)c2)cc1C (repeat unit)

Row | CH4 permeability [Barrer] | CO2 permeability [Barrer] | H2 permeability [Barrer] | N2 permeability [Barrer] | O2 permeability [Barrer] | SMILES
21 | 0.04 | 1.8 | – | – | 0.4 | *Oc1ccc(C(C)(C)c2ccc(Oc3ccc4c(c3)C(=O)N(c3ccc(N5C(=O)c6ccc(*)cc6C5=O)cc3)C4=O)cc2)cc1 (repeat unit)
22 | 0.0356 | 1.3 | – | 0.0526 | 0.4 | *Oc1ccc(C(C)(C)c2ccc(Oc3ccc4c(c3)C(=O)N(c3cccc(N5C(=O)c6ccc(*)cc6C5=O)c3)C4=O)cc2)cc1 (repeat unit)
23 | 0.59 | 13.1 | – | 0.54 | 2.58 | *Oc1ccc(C(C)(c2ccccc2)c2ccc(OC(=O)c3cccc(C(*)=O)c3)cc2)cc1 (repeat unit)
24 | 0.32 | 8.12 | – | 0.278 | 1.56 | *Oc1ccc(C(C)(c2ccccc2)c2ccc(Oc3ccc(S(=O)(=O)c4ccc(*)cc4)cc3)cc2)cc1 (repeat unit)
25 | 1.05 | 24 | 27 | 1.7 | 6.9 | *Oc1ccc(C(c2ccc(OC(*)=O)cc2)(C(F)(F)F)C(F)(F)F)cc1 (repeat unit)
26 | 2.74 | 47.1 | – | 2.95 | 11.8 | *Oc1ccc(C(c2ccc(OC(=O)c3ccc(C(*)=O)cc3)cc2)(C(F)(F)F)C(F)(F)F)cc1 (repeat unit)
27 | 0.345 | 8 | 22.8 | 0.44 | 2.4 | *Oc1ccc(C(c2ccc(Oc3ccc(C(=O)c4ccc(C(C)(C)c5ccc(C(=O)c6ccc(*)cc6)cc5)cc4)cc3)cc2)(C(F)(F)F)C(F)(F)F)cc1 (repeat unit)
28 | 0.55 | 12 | – | 0.67 | 3.4 | *Oc1ccc(C(c2ccc(Oc3ccc(S(=O)(=O)c4ccc(*)cc4)cc3)cc2)(C(F)(F)F)C(F)(F)F)cc1 (repeat unit)
29 | 0.0395 | 2.25 | 7.22 | 0.0437 | 0.441 | *Oc1ccc(C(c2ccc(Oc3ccc(S(=O)(=O)c4ccc(*)cc4)cc3)cc2)c2ccccc2C(=O)O)cc1 (repeat unit)
30 | 1.16 | 23.8 | 41.3 | 1.06 | 5.6 | *Oc1ccc(C2(c3ccc(OC(=O)c4cc(C(*)=O)cc(C(C)(C)C)c4)cc3)OC(=O)c3ccccc32)cc1 (repeat unit)
31 | 0.251 | 7.87 | 17.2 | 0.303 | 1.78 | *Oc1ccc(C2(c3ccc(OC(=O)c4cccc(C(*)=O)c4)cc3)OC(=O)c3ccccc32)cc1 (repeat unit)
32 | 0.71 | 20.1 | – | 0.64 | 3.92 | *Oc1ccc(C2(c3ccc(OC(=O)c4cccc(C(*)=O)c4)cc3)c3ccccc3-c3ccccc32)cc1 (repeat unit)
33 | 0.327 | 7.2 | 17.3 | 0.332 | 1.86 | *Oc1ccc(C2(c3ccc(Oc4ccc(S(=O)(=O)c5ccc(*)cc5)cc4)cc3)C3CC4CC(C3)CC2C4)cc1 (repeat unit)
34 | 0.143 | 5.74 | 10.1 | 0.17 | 1.2 | *Oc1ccc(C2(c3ccc(Oc4ccc(S(=O)(=O)c5ccc(*)cc5)cc4)cc3)OC(=O)c3ccccc32)cc1 (repeat unit)
35 | 0.19 | 4.5 | 10.4 | 0.2 | 1.1 | *Oc1ccc(Cc2ccc(Oc3ccc(S(=O)(=O)c4ccc(*)cc4)cc3)cc2)cc1 (repeat unit)
36 | 0.38 | 8.7 | 21 | 0.54 | 3.3 | *Oc1ccc(Oc2ccc(C(=O)c3ccc(*)cc3)cc2)c(-c2cc(C(F)(F)F)cc(C(F)(F)F)c2)c1 (repeat unit)
37 | 0.05 | 1.6 | 4.6 | 0.053 | 0.33 | *Oc1ccc(Oc2ccc(C(=O)c3ccc(*)cc3)cc2)c(-c2cc(C)cc(C)c2)c1 (repeat unit)
38 | 0.041 | 1.5 | 5.1 | 0.051 | 0.38 | *Oc1ccc(Oc2ccc(C(=O)c3ccc(*)cc3)cc2)c(-c2cccc(C(F)(F)F)c2)c1 (repeat unit)
39 | 0.024 | 1 | 3.8 | 0.029 | 0.2 | *Oc1ccc(Oc2ccc(C(=O)c3ccc(*)cc3)cc2)c(-c2cccc(C)c2)c1 (repeat unit)

— a polymer gas permeability compilation
